Assay results taken from patent publication US11505797B2, “Gene knockout of variant NRF2 for treatment of cancer” (Christiana Care Health Services, Inc., priority 2019, dated 2022).
Entries after “also recorded” stand apart in the source; their conditions may differ.

How the values were obtained:
[1] = test system: R34G-mutated NRF2 sequence; experiment: In vitro cleavage reaction, R34G-mutated NRF2 amplicons; format: biochemical, human; conditions: A549 R34G-6 amplicon, 0.5-5 pmol RNP, gel electrophoresis
Experimental: (§1) As proof of concept, an in vitro cleavage reaction was conducted to assess the level of discrimination using the R34G guide RNA in a ribonucleoprotein complex (RNP). The in vitro cleavage reaction encompasses complexing target specific-guide RNA with Cas9 protein to form a ribonucleoprotein (RNP). The RNP is incubated with DNA of interest (100 ng) and the reaction and cleavage products are visualized by gel electrophoresis. For this experiment, wildtype and R34G-mutated NRF2 PCR products (901 bp) from an NRF2 expression plasmid (FIG. 21) were incubated with R34G-targeting RNP complex (1 μM) and cleavage products were visualized by gel electrophoresis, shown in FIG. 22.
Once the sequences were verified, genomic DNA from each cell line was used to amplify exon 2 of NRF2. The PCR products (530 bp) from each cell line were then used in in vitro cleavage reactions under various parameters to test specificity and fidelity of the R34G-targeting RNP. For these cleavage reactions, expected cleavage products would appear at 385 and 145 bp as indicated by the red lines along the ladder, with uncut product appearing at 530 bp. FIG. 24 depicts the gel image from an in vitro cleavage reaction using wildtype NRF2 sequence from parental A549 cells and R34G-mutated NRF2 sequence from the A549 R34G-6 cells. An increasing concentration (0.5-5 pmol) of R34G-targeting RNP was used to determine the threshold and fidelity of the sequence. […] Uncut product (top band, 530 bp) can still be seen in lanes 7-10, which corresponds to the heterozygosity of the R34G mutation in the A549 R34G-6 cell line. Therefore, the wildtype NRF2 allele in the A549 R34G-6 cell line acts as an internal negative control.
Another in vitro cleavage reaction was conducted to assess the cleavage efficiency of the wildtype NRF2 sequence to ensure the R34G-targeting RNP was, in fact, not cleaving the wildtype NRF2 sequence because of the lack of the R34G mutation. A guide RNA with a cut site 29 bp upstream (labeled Neh2 RNP) from the R34G RNP cut site was selected and used as a positive cleavage control. […] Lanes 1-8 were reactions using wildtype NRF2 sequence while lanes 9-16 were reactions using R34G-mutated NRF2 sequence. In lanes 2-4 and 10-12, PCR products were incubated with increasing concentrations (1, 3 & 5 pmol) of RNP targeting the beginning of exon 2 (Neh2 RNP). The Neh2 guide RNA sequence is: 5′ […] 3′ (SEQ ID NO:13) which is a native CRISPR site and used as the positive control for cleavage for these reactions. […] In lanes 6-8 and 14-16, PCR products were incubated with increasing concentrations (1, 3 & 5 pmol) of R34G-targeting RNP. […] This further reinforces the specificity of the R34G-targeting RNP only recognizing the target DNA in the presence of the R34G mutation in exon 2 of NRF2. […]

wildtype NRF2 sequence = experiment: In vitro cleavage reaction, wildtype NRF2 amplicons; format: biochemical, human; conditions: A549 or H1703 parental amplicons, 0.5-5 pmol RNP, gel electrophoresis
Experimental: as §1
Once the sequences were verified, genomic DNA from each cell line was used to amplify exon 2 of NRF2. The PCR products (530 bp) from each cell line were then used in in vitro cleavage reactions under various parameters to test specificity and fidelity of the R34G-targeting RNP. For these cleavage reactions, expected cleavage products would appear at 385 and 145 bp as indicated by the red lines along the ladder, with uncut product appearing at 530 bp. FIG. 24 depicts the gel image from an in vitro cleavage reaction using wildtype NRF2 sequence from parental A549 cells and R34G-mutated NRF2 sequence from the A549 R34G-6 cells. […]

wild type A549 tumors = experiment: Xenograft mouse model, wild type A549 tumors; format: in vivo, athymic nude mice; conditions: for tumor growth over 16 days: tail vein day 0, 3, 6, 9, cisplatin 2 mg/kg, cisplatin 5 mg/kg + vinorelbine 5 mg/kg, carboplatin 25 mg/kg
Experimental: (§2) The human xenograft model was established using methodology reported previously. Kellar et al., Biomed Res. Int. […] Female athymic nude mice (Envigo, 5-6 weeks old) were used in this study. Approximately 5×10^6 cells (wild type A549 or homozygous knockout (clonal expansion 2-11)) suspended in PBS with 20% Matrigel were injected subcutaneously into right flank of each mouse. Tumor volume was measured three times a week with a digital caliper once palpable, and calculated using the formula, tumor size=ab^2/2, where ‘a’ is the larger and ‘b’ is the smaller of the two dimensions. When tumors grew up to a mean volume of around 100 mm^3, A549 tumor bearing mice or A549-2-11 tumor bearing mice were randomly divided into 7 groups (N=5 for each group) respectively and subject to dose/regimen-finding study. […] Tumor volume and body weight was closely monitored over time. After 16 days, the animals were sacrificed, with tumor removed, weighed and processed for molecular analysis. Mice were euthanized. The data were expressed as mean±SD. Student's t-test and one-way or two-way ANOVA was used to assess the significance of difference. A P value<0.05 was considered significant.
(§3) A549 xenografts were resected on day 16, snap frozen in liquid nitrogen and stored in −80° C. until usage. All immunofluorescence staining was performed as previously described. Wang et al., Investig. Opthalmology Vis. […] Briefly, tumors were embedded in Optimum Cutting Temperature (Tissue Tek, Torrance, Calif., USA) and 16-μm-thick sections were obtained with a Leica CM3050 cryostat (Leica Microsystems, Buffalo Grove, Ill., USA), and mounted on slides. Slides were fixed and incubated with blocking buffer for 1 hour at room temperature. […] Sections were washed in PBS, then mounted with SlowFade Gold antifade mountant with DAPI (Invitrogen, Carlsbad, Calif., USA). Images were obtained with a Zeiss Observer.Z1 microscope (Carl Zeiss, Inc., Gottingen, Germany). The TUNEL assay was conducted with In Situ Cell Death Detection Kit, Fluorescein (Roche, Base, Switzerland), following the manufacturer's instructions. […]

[2] = test system: NRF2 knockout A549 cells (2-11); experiment: MTS cell proliferation assay, NRF2 knockout A549 cells (2-11); format: cell-based, human
Experimental: (§4) Cell viability was evaluated using the CellTiter 96 Aqueous Non-Radioactive Cell Proliferation Assay (Promega, Madison, Wis.). A549 cell lines were plated at 2×10^3 cells per well and allowed to culture for 24 hours. The cell media was then aspirated, the cells washed with PBS, then exposed to the MTS reagent for 3 hours. After 3 hours of MTS bio-reduction by proliferating cells, the formazan product's absorbance was measured using a 450 nm filter on an Infinite 2000 PRO microplate reader (Tecan, Mannadorf, Switzerland). Cell viability after drug exposure was evaluated using the CellTiter 96 Aqueous Non-Radioactive Cell Proliferation Assay. A549 cell lines were plated at 2×10^3 cells per well and allowed to culture for 24 hours. The cells were then treated with cisplatin, carboplatin, or a combination of cisplatin and vinorelbine for three days. The cell media was then aspirated, the cells washed with PBS, then exposed to the MTS reagent for 3 hours. After 3 hours of MTS bio-reduction by proliferating cells, the formazan product's absorbance was measured using a 450 nm filter on an Infinite 2000 PRO microplate reader.

wild type A549 cells = experiment: MTS cell proliferation assay, wild type A549 cells; format: cell-based, human
Experimental: as §4

[3] = test system: A549 Neh2 KO clones 1-17, 2-16, 2-23; experiment: MTS assay of A549 Neh2 KO clones treated with cisplatin; format: cell-based, human; conditions: 1, 2, 3, 5, 10 uM cisplatin
Text: The lung adenocarcinoma-derived cell line, A549, was used transfected with CRISPR/Cas9 designed to target exon 2 of NRF2 to create individual clones with random indel patterns. A total of three clones, 1-17, 2-16, and 2-23, were isolated and expanded. All three clones were collected for genomic DNA isolation and sanger sequencing to confirm the indels present. The DECODR program was used to deconvolute the sanger sequencing of each clone. The A549 cell line is polyploid and therefore, these clones contain 3 alleles of the NRF2 gene. Clone 1-17 contains −2, −2, −13 base pair deletions. Clone 2-16 contains a −1 base pair deletion across all alleles. Clone 2-23 contains two wildtype alleles and a −2 base pair deletion. A cell proliferation assay was used to assess the functionality of NRF2 after CRISPR targeting in combination with cisplatin treatment. […] Absorbance values for each clone and concentration were normalized by dividing the absorbance by the absorbance of each control well (0 μM). Normalized values for each clone at each concentration were then averaged across and standard error of the mean was calculated. […]
Several A549 NRF2 knockout clones were created and used for dose curves with Cisplatin and Carboplatin (0-10 uM concentration). […] These genomic profiles were analyzed by TIDE and DECODR. […]

[4] = test system: NRF2 knockout A549 (2-11) tumors; experiment: Xenograft mouse model, NRF2 knockout A549 (2-11) tumors; format: in vivo, athymic nude mice; conditions: cisplatin 2 mg/kg
Experimental: as §2, §3

Compound: 5′ TGGATTTGATTGACATACTTTGG 3′ [Neh2 RNP]
- cleavage of R34G-mutated NRF2 amplicon (530 bp) [1]: can be seen in both wildtype and R34G-mutated NRF2 sequences
- cleavage of wildtype NRF2 amplicon (530 bp) (wildtype NRF2 sequence): can be seen in both wildtype and R34G-mutated NRF2 sequences

Compound: N.N.[Cl][Pt][Cl] [cisplatin]
- Ki67 staining of xenograft tumors (wild type A549 tumors; cisplatin 2 mg/kg versus saline, day 16): no difference in Ki67 levels
- tumor growth over 16 days (wild type A549 tumors): proliferate aggressively
- tumor growth over 16 days (wild type A549 tumors; listed as Cisplatin): not inhibited by the drug
- cisplatin concentration with loss of proliferation ([2]; 2-11 knockout A549, 72 hours): ≥ 1 µM
- chemosensitivity (MTS cell proliferation) ([2]; 2-11 knockout A549, increasing dosages, 72 hours): heightened sensitivity
- cisplatin concentration at which proliferation is adversely affected (wild type A549 cells; wild type A549, 72 hours): ≥ 5 µM
- chemosensitivity (MTS cell proliferation) (wild type A549 cells; wild type A549, increasing dosages, 72 hours): resistant to high dosages of Cisplatin
- sensitivity to cisplatin (MTS), clones 1-17 and 2-16 [3]: relatively the same trend of sensitivity
- sensitivity to cisplatin (MTS), clone 2-23 ([3]; two wildtype alleles and -2 bp deletion): even higher resistance than the wildtype cells
- Ki67 staining of xenograft tumors ([4]; day 16): substantially lower
- tumor growth over 16 days ([4]; tail vein day 0, 3, 6, 9, cisplatin 5 mg/kg + vinorelbine 5 mg/kg, carboplatin 25 mg/kg): proliferation of the implanted cells is arrested, and the tumor size is maintained at the same level; also recorded: smallest tumors; also recorded: significant reduction in tumor cell proliferation
